The record followed here is patent US7667052B2 (Eisai R&D Management Co., Ltd., priority 2003, dated 2010).

Read-outs that look alike come from different tables or passages of the source.

In series [1] the test system is VEGF production in U251 human glioma cell. Put plainly: VEGF production suppressing action under low oxygen, ELISA. It counts as cell-based. Conditions: for VEGF production suppressing action: IC50: U251, low oxygen (2% O2) incubator 18 hours; for VEGF production suppression, in words: U251, low oxygen stimulation. Here is the method: U251 human glioma cell cultured in DULBECCO-modified eagle medium (DMEM; manufactured by SIGMA Co., Ltd.) containing 10% fetal calf serum, penicillin (100 unit/ml) and streptomycin (100 μg/ml) was dispensed in 96-well plates by 4×10^4 cells/well. After culturing at 37° C. overnight in a CO2 incubator (5% CO2), the media were removed, and 180 μl of the above-mentioned incubation solution was charged. After adding 20 μL of the above-mentioned incubation solution containing the test compound diluted with 3-fold succession, they were incubated in a low oxygen (2% O2) incubator for 18 hours. The supernatants thereof were measured by an ELISA kit (Immunobiology Research Institute).
Concentration at which the amount of VEGF expressed by low oxygen stimulation was suppressed to 50% (IC50 value) was determined and results are shown in Table 9. […] The activities of 11107F and 11107G were very weak.
(In general: An ELISA detects its analyte on a solid surface through an enzyme-linked reagent.)

Series [2] is described as follows: Solubility (physico-chemical properties of the 11107 analogues). Conditions: in dimethylsulfoxide, pyridine, methanol, acetone and water.
Series [3] deals with transcription from VEGF promoter. Nature of the series: VEGF transcription-suppressing activity, VEGF-PLAP reporter in U251/1-8 cell. The class given is cell-based. Conditions: Homo sapiens, U-251, U251/1-8 cell, PLAP activity, low oxygen 18 hours. The procedure, abridged: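 U251 glioma clone stably carrying a ~2.3 kb human VEGF promoter–secreted PLAP reporter, 4×10^4 cells/well, exposed to 3-fold dilutions of compound for 18 h under low oxygen. Supernatant PLAP read by chemiluminescence at pH 10.0; IC50 = 50% suppression, normoxia 0%, hypoxia 100%.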

Where [4] appears, read: read-out: IC50 values of VEGF transcription-suppressing activity (range given).
The mark [5] stands for this setting: read-out: VEGF transcription suppressing activity (IC50: nM).

The term IC50 denotes the concentration that gives 50% inhibition.

In the case of `CCC(O)C(C)(O)C1OC1CC(C)/C=C/C=C(\C)C1OC(=O)CC(O)CCC(C)(O)C(OC(C)=O)/C=C/C1C` (stereo not drawn) [11107 E], in series [1], the “VEGF production suppressing action: IC50” value was 0.0363 µg/mL.

In the case of `CCC(O)C(C)C1OC1CC(C)(O)/C=C/C=C(\C)C1OC(=O)CC(O)CCC(C)(O)C(OC(C)=O)/C=C/C1C` (stereo not drawn) [11107 D], the “VEGF production suppressing action: IC50” value in series [1] was 0.0032 µg/mL.

As for `CCC(=O)OC1/C=C/C(C)C(/C(C)=C/C=C/C(C)CC2OC2C(C)C(O)CC)OC(=O)CC(O)CCC1(C)O` (stereo not drawn) [11107I], the Solubility entry in series [2] was “soluble in dimethylsulfoxide, pyridine, methanol and acetone, and slightly soluble in water”. Besides, the IC50 in series [3] (setting [4]) lay in the range of 1 to 100 nM.

`CCC(O)C(C)C1OC1CC(C)(O)/C=C/C=C(\C)C1OC(=O)CC(O)CCC(C)(O)C(O)/C=C/C1C` (stereo not drawn) [11107F]: in series [1], the “VEGF production suppression, in words” value was “very weak”.

`CCC(O)C(C)C1OC1CC(C)/C=C/C=C(\C)C1OC(=O)CC(O)CC(O)C(C)C(OC(C)=O)/C=C/C1C` (stereo not drawn) [11107Y]: in series [2], the Solubility entry was “soluble in dimethylsulfoxide, pyridine, methanol and acetone, and slightly soluble in water”. Besides, in series [3] (setting [4]), the IC50 lay within 1 to 100 nM.

For `CCC(O)C(C)C1OC1CC(C)/C=C/C=C(\C)C1OC(=O)CC(OC(C)=O)CCC(C)(O)C(OC(C)=O)/C=C/C1C` (stereo not drawn) [11107M], the Solubility entry in series [2] was “soluble in dimethylsulfoxide, pyridine, methanol and acetone, and slightly soluble in water”. In addition, the IC50 in series [3] (setting [4]) is 1 to 100 nM.

Regarding `CCC(=O)C(C)C1OC1CC(C)/C=C/C=C(\C)C1OC(=O)CC(O)CCC(C)(O)C(OC(C)=O)/C=C/C1C` (stereo not drawn) [11107C, (8E,12E,14E)-7-Acetoxy-3,6-dihydroxy-6,10,12,16,20-pentamethyl-21-oxo-18,19-epoxytricosa-8,12,14-trien-11-olide], in series [1], the “VEGF production suppression, in words” value is “strong successive to 11107B”. In addition, the IC50 in series [3] (setting [4]) is 1 to 100 nM; in series [3] (setting [5]) it was 8.2 nM.

For `CCC(O)C(C)C1OC1CC(C)/C=C/C=C(\C)C1OC(=O)CC(O)CCC(O)(COC(C)=O)C(O)/C=C/C1C` (stereo not drawn) [11107AB], in series [2], the Solubility entry is “soluble in dimethylsulfoxide, pyridine, methanol and acetone, and slightly soluble in water”. In addition, the IC50 in series [3] (setting [4]) is 1 to 100 nM.

On to `CC(=O)OC1/C=C/C(C)C(/C(C)=C/C=C/C(C)CC2OC2C(C)C(O)C(C)O)OC(=O)CC(O)CC(O)C1(C)O` (stereo not drawn) [11107AZ], for which the Solubility entry in series [2] is “soluble in dimethylsulfoxide, pyridine, methanol and acetone, and slightly soluble in water”. The IC50 in series [3] (setting [4]) lay in the range of 1 to 100 nM.

Turning to `CCC(O)C(C)(O)C1OC1CC(C)/C=C/C=C(\C)C1OC(=O)CC(O)CCC(C)(O)C(O)/C=C/C1C` (stereo not drawn) [11107G], the Solubility entry in series [2] was “soluble in dimethylsulfoxide, pyridine, methanol and acetone, and slightly soluble in water”. In addition, the “VEGF production suppression, in words” value in series [1] was “very weak”.

Consider `CC(=O)OC1/C=C/C(C)C(/C(C)=C/C=C/C(C)CC2OC2C(C)C(C)O)OC(=O)CC(O)CCC1(C)O` (stereo not drawn) [11107J], for which the Solubility result in series [2] was “soluble in dimethylsulfoxide, pyridine, methanol and acetone, and slightly soluble in water”. Further, the IC50 in series [3] (setting [4]) was 1 to 100 nM; in series [3] (setting [5]) it was 5.9 nM.

For the compound `CC(=O)OC1/C=C/C(C)C(/C(C)=C/C=C/C(C)CC2OC2C(C)C(O)C(C)O)OC(=O)CC(O)CCC1(C)O` (stereo not drawn) [11107AW], in series [2], the Solubility entry is “soluble in dimethylsulfoxide, pyridine, methanol and acetone, and slightly soluble in water”. Besides, in series [3] (setting [4]), the IC50 was 1 to 100 nM.

As for `CCC(O)C(C)C1OC1CC(C)/C=C/C=C(\C)C1OC(=O)CC(O)CCC(C)(OC(C)=O)C(OC(C)=O)/C=C/C1C` (stereo not drawn) [11107AQ], the Solubility entry in series [2] is “soluble in dimethylsulfoxide, pyridine, methanol and acetone, and slightly soluble in water”. In addition, the IC50 in series [3] (setting [4]) was in the range of 1 to 100 nM.

As to `CCC(O)C(C)C1OC1CC(C)/C=C/C=C(\C)C1OC(=O)CC(O)/C=C/C2(CO2)C(OC(C)=O)/C=C/C1C` (stereo not drawn) [11107AN], the Solubility entry in series [2] is “soluble in dimethylsulfoxide, pyridine, methanol and acetone, and slightly soluble in water”. Besides, the IC50 in series [3] (setting [4]) is 1 to 100 nM.

For the compound `CCC(=O)C(C)C1OC1CC(C)/C=C/C=C(\C)C1OC(=O)CC(O)CCC(C)(O)C(OC(C)=O)/C=C/C1C` (stereo not drawn) [11107 C], in series [1], the “VEGF production suppressing action: IC50” value came to 0.003 µg/mL.

Regarding `CCC(O)C(C)C1OC1CC(C)/C=C/C=C(\C)C1C/C=C/C(OC(C)=O)C(C)(O)CCC(O)CC(=O)O1` (stereo not drawn) [11107Z], the Solubility result in series [2] is “soluble in dimethylsulfoxide, pyridine, methanol and acetone, and slightly soluble in water”. Further, the IC50 in series [3] (setting [4]) lay within 1 to 100 nM.

For the compound `CCC(O)C(C)(O)C1OC1CC(C)/C=C/C=C(\C)C1OC(=O)CC(O)CCC(C)(O)C(OC(C)=O)/C=C/C1C` (stereo not drawn) [11107E], the Solubility entry in series [2] was “soluble in dimethylsulfoxide, pyridine, methanol and acetone, and slightly soluble in water”. Further, the IC50 in series [3] (setting [4]) lay within 1 to 100 nM.

For `CCC(O)C(C)C1OC1CC(C)/C=C/C=C(\C)C1OC(=O)CC(O)CCC(O)(COC(C)=O)C(OC(C)=O)/C=C/C1C` (stereo not drawn) [11107N], the Solubility entry in series [2] was “soluble in dimethylsulfoxide, pyridine, methanol and acetone, and slightly soluble in water”. For the same compound, in series [3] (setting [4]), the IC50 lay in the range of 1 to 100 nM.

As for `CC(=O)OC1/C=C/C(C)C(/C(C)=C/C=C/C(C)CC2OC2C(C)O)OC(=O)CC(O)CCC1(C)O` (stereo not drawn) [11107R], the Solubility result in series [2] was “soluble in dimethylsulfoxide, pyridine, methanol and acetone, and slightly soluble in water”. Further, the IC50 in series [3] (setting [4]) lay within 1 to 100 nM.

Take `CCC(O)C(C)/C=C/CC(C)/C=C/C=C(\C)C1OC(=O)CC(O)CCC(C)(O)C(OC(C)=O)/C=C/C1C` (stereo not drawn) [11107BI]: the Solubility entry in series [2] was “soluble in dimethylsulfoxide, pyridine, methanol and acetone, and slightly soluble in water”. Further, the 50% inhibitory concentration (IC50) in series [3] (setting [4]) lay in the range of 1 to 100 nM.

`CCC(O)C(C)C1OC1CC(C)/C=C/C=C(\C)C1OC(=O)CC(O)CCC(C)(O)C(O)/C=C/C1C` (stereo not drawn) [11107 A]: in series [1], the “VEGF production suppressing action: IC50” value was 0.111 µg/mL.

Consider `CC(=O)OC1/C=C/C(C)C(/C(C)=C/C=C/C(C)CC(O)/C=C(\C)C(=O)C(C)O)OC(=O)CC(O)CCC1(C)O` (stereo not drawn) [11107Q], for which the Solubility result in series [2] is “soluble in dimethylsulfoxide, pyridine, methanol and acetone, and slightly soluble in water”. The IC50 in series [3] (setting [4]) was in the range of 1 to 100 nM.

As for `CCC(O)C(C)C1OC1CC(C)/C=C/C=C(\C)C1OC(=O)CC(O)/C=C/C(C)(OC(C)=O)C(OC(C)=O)/C=C/C1C` (stereo not drawn) [11107AP], the Solubility result in series [2] was “soluble in dimethylsulfoxide, pyridine, methanol and acetone, and slightly soluble in water”. Moreover, the IC50 in series [3] (setting [4]) lay in the range of 1 to 100 nM.

Take `CCC(O)C(C)C1OC1CC(C)/C=C/C=C(\C)C1OC(=O)CC(O)CC(OC(C)=O)C(C)(O)C(OC(C)=O)/C=C/C1C` (stereo not drawn) [11107L]: the Solubility result in series [2] is “soluble in dimethylsulfoxide, pyridine, methanol and acetone, and slightly soluble in water”. In addition, the IC50 in series [3] (setting [4]) was in the range of 1 to 100 nM.

With `CCC1OC1C(O)C(C)/C=C/C=C(\C)C1OC(=O)CC(O)CCC(C)(O)C(OC(C)=O)/C=C/C1C` (stereo not drawn) [11107AY], the Solubility result in series [2] is “soluble in dimethylsulfoxide, pyridine, methanol and acetone, and slightly soluble in water”. Also, the IC50 in series [3] (setting [4]) was 1 to 100 nM.

As for `CCC1OC1(C)C(O)C(C)/C=C/C=C(\C)C1OC(=O)CC(O)CCC(C)(O)C(OC(C)=O)/C=C/C1C` (stereo not drawn) [11107BG], in series [2], the Solubility entry was “soluble in dimethylsulfoxide, pyridine, methanol and acetone, and slightly soluble in water”. The IC50 in series [3] (setting [4]) was in the range of 1 to 100 nM.

Take `CCC(O)CC1OC1CC(C)/C=C/C=C(\C)C1OC(=O)CC(O)CCC(C)(O)C(OC(C)=O)/C=C/C1C` (stereo not drawn) [11107T]: the Solubility entry in series [2] is “soluble in dimethylsulfoxide, pyridine, methanol and acetone, and slightly soluble in water”. Moreover, the IC50 in series [3] (setting [4]) is 1 to 100 nM.
